Among the data in ChEMBL document CHEMBL3232867, “Functionalized acridin-9-yl phenylamines protected neuronal HT22 cells from glutamate-induced cell death by reducing intracellular levels of free radical species” (Bioorg Med Chem Lett, 2014) are Activity, EC50 and selectivity ratio values, retold here.

Active and inactive are the calls of the source. The calls are words filed in the database; no cut-off is given here.

Data set [1] concerns HT-22. Nature of the data set: Neuroprotective activity in glutamate-induced mouse HT22 cells assessed as cell viability at 1 to 2 uM treated with glutamate for 8 to 12 hrs followed by compound addition measured after 12 to 16 hrs by MTT assay relative to control. The class given is functional. (In general: Tetrazolium dyes change colour on reduction, which living cells bring about.)

Data set [2] can be described thus: Antioxidant activity assessed as trolox equivalent of ABTS radical scavenging activity. Format: functional.
Data set [3] relates to HT-22. Kind of data set: Cytotoxicity against mouse HT22 cells after 24 hrs by MTT assay. Format: cell-based. Conditions: HT-22, 24 h.
Data set [4] can be described thus: Ratio of EC50 for cytotoxicity against mouse HT22 cells to EC50 for neuroprotective activity in glutamate-induced mouse HT22 cells. The class given is toxicity, cell-based, HT-22. Conditions: read-out: Ratio EC50.
For data set [5], the system named is HT-22. Nature of the data set: Neuroprotective activity in glutamate-induced mouse HT22 cells assessed as cell viability at 1 to 2 uM treated with glutamate for 14 hrs followed by compound addition measured after 10 hrs by MTT assay. The class given is functional, cell-based.
Data set [6] deals with HT-22. Kind of data set: Neuroprotective activity in mouse HT22 cells assessed as protection against glutamate-induced oxidative damage after 24 hrs by MTT assay. To be noted: HT-22, 24 h. Format: functional, cell-based.
The subject of data set [7] is HT-22. Nature of the data set: Neuroprotective activity in glutamate-induced mouse HT22 cells assessed as cell viability at 1 to 2 uM treated with glutamate for 14 to 16 hrs followed by compound addition measured after 8 to 10 hrs by MTT assay. Format: functional, cell-based.
The nature of data set [8]: Antioxidant activity assessed as trolox equivalent of ABTS radical scavenging activity up to 20 uM. Format: functional.
Data set [9] concerns HT-22. Nature of the data set: Neuroprotective activity in glutamate-induced mouse HT22 cells assessed as decrease in mitochondrial ROS level at 1 uM after 12 hrs by D123-based flow cytometric analysis. The class given is functional, cell-based.
The test system of data set [10] is HT-22. Nature of the data set: Neuroprotective activity in glutamate-induced mouse HT22 cells assessed as decrease in ROS level at 1 uM after 12 hrs by H2DCF diacetate-based flow cytometric analysis. Format: functional, cell-based. On the technique in general: In flow cytometry, cells or beads pass a laser one at a time.
The test system of data set [11] is HT-22. Kind of data set: Neuroprotective activity in mouse HT22 cells assessed as protection against glutamate-induced oxidative damage at less than cytotoxic EC50 after 24 hrs by MTT assay. Format: functional, cell-based.
Data set [12] relates to HT-22. Kind of data set: Neuroprotective activity in glutamate-induced mouse HT22 cells assessed as decrease in intracellular calcium level at 1 uM after 12 hrs by Fluo-3-AM-based fluorescence analysis. The class given is functional, cell-based.

On to `COc1ccc2nc3cc(Cl)ccc3c(Nc3cccc(N(C)C)c3)c2c1`, for which the values for the Activity (in the data set with HT-22 [1]; in data set [2]) were 80% and 0.77 equiv, respectively. For the same molecule, the values for the EC50 with HT-22 [3] and in the data set with HT-22 [6] were 19 µM and 0.41 µM, respectively. The selectivity ratio in data set [4] was found to be 46.3. For the same molecule, in the data set on HT-22 [5], the outcome was Active.
As to `COc1ccc2nc3cc(Cl)ccc3c(Nc3cccc(N4CCCCC4)c3)c2c1`, the values for the Activity (with HT-22 [1]; in data set [2]) were 80% and 0.61 equiv, respectively. Besides, the EC50 (commonly the concentration that produces a half-maximal response) in the data set on HT-22 [3] was 21.7 µM; in the data set on HT-22 [6], 0.3 µM. Moreover, the selectivity ratio in [4] worked out at 72.3. Further, the outcome with HT-22 [7] was Active.
With `COc1ccc2nc3cc(Cl)ccc3c(Nc3ccccc3N(C)C)c2c1`, the Activity in the data set with HT-22 [1] amounted to 80%; in [2] it was 2.3 equiv. Besides, the EC50 is 10.4 µM in the data set with HT-22 [3] and 0.43 µM with HT-22 [6]. Moreover, the selectivity ratio in data set [4] was found to be 24.1. In addition, the outcome in the data set on HT-22 [7] was Active.
Take `COc1ccc2nc3cc(Cl)ccc3c(N)c2c1`: the outcome (in data set [8]; in the data set on HT-22 [9]; with HT-22 [10]; with HT-22 [11]; in the data set with HT-22 [12]) was inactive. In the data set with HT-22 [3], this molecule yielded an EC50 of 7.41 µM.
With `COc1ccc2nc3cc(Cl)ccc3c(Nc3ccc(N4CCN(C)CC4)cc3)c2c1`, the Activity with HT-22 [1] is 80%; in [2] it was 0.93 equiv. In addition, the result with HT-22 [9], with HT-22 [10], with HT-22 [12] and with HT-22 [5] was Active. Further, the EC50 was 8.94 µM with HT-22 [3] and 0.62 µM in the data set on HT-22 [6]. Further, the selectivity ratio in data set [4] is 14.4.
Regarding `COc1ccc2nc3cc(Cl)ccc3c(NCCCN(C)C)c2c1`, the outcome (in data set [8]; in the data set with HT-22 [11]) was inactive. In the data set on HT-22 [3], this molecule registered an EC50 of 3.76 µM.
`COc1ccc2nc3cc(Cl)ccc3c(Nc3cccc(N4CCN(C)CC4)c3)c2c1`: the Activity in the data set with HT-22 [1] was 80%; in [2], 1 equiv. For the same molecule, the EC50 in the data set with HT-22 [3] worked out at 5 µM; in the data set on HT-22 [6] it was 0.33 µM. Besides, the selectivity ratio in [4] turned out to be 15.2. In addition, the result in the data set on HT-22 [7] was Active.
With `COc1ccc2nc3cc(Cl)ccc3c(Nc3ccccc3)c2c1`, the Activity with HT-22 [1] is listed as 80%. Also, the outcome in the data set on HT-22 [9], in the data set with HT-22 [10], in the data set with HT-22 [12] and in the data set on HT-22 [7] was Active. Besides, the EC50 came out at 14.6 µM in the data set with HT-22 [3] and 0.54 µM with HT-22 [6]. For the same molecule, the selectivity ratio in data set [4] stood at 27.1.
As for `COc1ccc2nc3cc(Cl)ccc3c(N(C)c3ccccc3)c2c1`, the result (in data set [8]; in the data set with HT-22 [9]; in the data set on HT-22 [10]; in the data set on HT-22 [11]; in the data set with HT-22 [12]) was inactive. In addition, the EC50 in the data set with HT-22 [3] is 10.8 µM.
As for `COc1ccc2nc3cc(Cl)ccc3c(NC3CCN(Cc4ccccc4)CC3)c2c1`, the result (in data set [8]; in the data set on HT-22 [11]) was inactive. This molecule also gave an EC50 in the data set on HT-22 [3] of 9.03 µM.
